Test results from ChEMBL document CHEMBL5584269 (Bioorg Med Chem Lett, 2024).
Active and inactive are the calls of the source. The rule behind the calls is not given here.

Experiments:
HeLa = experiment: Cytotoxicity against human HeLa cells incubated for 72 hrs by alamar blue cell viability assay; type: functional, cell-based
Leishmania donovani [1] = experiment: Antileishmanial activity against promastigote form of Leishmania donovani assessed as reduction in parasite growth incubated for 72 hrs by alamar blue dye based fluorescence analysis; type: functional, organism-based
Leishmania donovani [2] = experiment: Antileishmanial activity against Leishmania donovani axenic amastigotes assessed as reduction in parasite growth incubated for 72 hrs by alamar blue dye based fluorescence analysis; type: functional, organism-based
Trypanosoma cruzi = experiment: Antitrypanosomal activity against epimastigote form of Trypanosoma cruzi CL Brener assessed as reduction in parasite growth incubated for 72 hrs by alamar blue dye based fluorescence analysis; type: functional, organism-based
Leishmania major [3] = experiment: Antileishmanial activity against promastigote form of Leishmania major Freidlin assessed as reduction in parasite growth incubated for 72 hrs by alamar blue dye based fluorescence analysis; type: functional, organism-based
THP-1 = experiment: Cytotoxicity against human THP-1 cells incubated for 72 hrs by alamar blue cell viability assay; type: functional, cell-based; conditions: THP-1, 72 h
Leishmania donovani [4] = experiment: Antileishmanial activity against Leishmania donovani amastigotes infected in human THP-1 cells assessed as reduction in parasite growth incubated for 72 hrs by alamar blue dye based fluorescence analysis; type: functional, organism-based; conditions: THP-1, 72 h
Trypanosoma brucei [5] = experiment: Antitrypanosomal activity against bloodstream trypomastigote form of Trypanosoma brucei Lister 427 assessed as reduction in parasite growth incubated for 72 hrs by alamar blue dye based fluorescence analysis; type: functional, organism-based; conditions: Lister 427, 72 h
[6] = Selectivity ratio of EC50 for antileishmanial activity against Leishmania donovani amastigotes infected in human THP-1 cells to EC50 for cytotoxicity against human THP-1 cells; type: functional
Trypanosoma brucei [7] = experiment: Induction of morphological change in bloodstream trypomastigote form of Trypanosoma brucei Lister 427 assessed as appearance of swollen cells at EC10 incubated for 48 hrs by DAPI staining based immunofluorescence analysis; type: functional, organism-based
Leishmania major [8] = experiment: Induction of morphological change in promastigote form of Leishmania major Freidlin assessed as increase in intracellular vesicles at EC10 incubated for 48 hrs by DAPI staining based immunofluorescence analysis; type: functional, organism-based
Trypanosoma brucei [9] = experiment: Induction of morphological change in bloodstream trypomastigote form of Trypanosoma brucei Lister 427 assessed as reduction in cytokinesis at EC10 incubated for 48 hrs by DAPI staining based immunofluorescence analysis; type: functional, organism-based

Compound | EC50 (HeLa) | EC50 (Leishmania donovani [1]) | EC50 (Leishmania donovani [2]) | EC50 (Trypanosoma cruzi) | EC50 (Leishmania major [3]) | EC50 (THP-1) | EC50 (Leishmania donovani [4]) | EC50 (Trypanosoma brucei [5]) | Ratio EC50 [6] | Activity (Trypanosoma brucei [7]) | Activity (Leishmania major [8]) | Activity (Trypanosoma brucei [9])
COC(=O)[C@H]1CCCN1C(=O)CC(C)C | > 250 µM | 1.09 µM | 870 nM | 37.1 µM | 2.04 µM | > 250 µM | 2.05 µM | 1.44 µM | 50 |  |  | 
O=C(O)[C@@H]1CCCN1C(=O)CCS | > 250 µM | 7.15 µM |  | 20.8 µM | 9.88 µM |  |  | 28.4 µM |  |  |  | 
CC(C)(C)C(=O)N1CCC[C@H]1C(=O)O | > 250 µM | 19.9 µM |  | 70.9 µM | 20.4 µM |  |  | 61.5 µM |  |  |  | 
COC(=O)[C@H]1CCCN1C(=O)CCSC | > 250 µM | 2.68 µM |  | 33.6 µM | 3.1 µM |  |  | 5.94 µM |  |  |  | 
COC(=O)[C@@H]1CCCN1C(=O)C(C)C | > 250 µM | 7.02 µM |  | 53.9 µM | 4.51 µM |  |  | 9.85 µM |  |  |  | 
CC(C)CC(=O)N1CCC[C@@H]1C(=O)O | > 250 µM | 1.42 µM |  | 39.6 µM | 2.77 µM |  |  | 1.92 µM |  |  |  | 
CC1CS(=O)(=O)CCN1/N=C/c1ccc([N+](=O)[O-])o1 (stereo not given) [NIFURTIMOX] |  |  |  | 3.11 µM |  |  |  |  |  |  |  | 
C[C@H](CSCc1ccccc1)C(=O)N1CCC[C@H]1C(=O)O | > 250 µM | 10.1 µM |  | 40.1 µM | 16.8 µM |  |  | 38.6 µM |  |  |  | 
COC(=O)[C@@H]1CCCN1C(=O)CCSC | > 250 µM | 2.02 µM | 1860 nM | 19.5 µM | 2.46 µM | > 250 µM | 4.67 µM | 12.4 µM | 50 |  |  | 
C[C@H](CS)C(=O)N1CCC[C@H]1C(=O)O [CAPTOPRIL] | 130 µM | 9.41 µM |  |  | 12.4 µM |  |  | 22.9 µM |  |  |  | 
CSCCC(=O)N1CCC[C@H]1C(=O)O | > 250 µM | 13.5 µM |  | 35.2 µM | 16.8 µM |  |  | 28.2 µM |  |  |  | 
O=C(O)[C@@H]1CCCN1C(=O)CCSCc1ccccc1 | 120 µM | 2.58 µM |  | 19.9 µM | 3.16 µM |  |  | 14.8 µM |  |  |  | 
COC(=O)[C@@H]1CCCN1C(=O)CCS | > 250 µM | 5.77 µM |  | 14.9 µM | 7.02 µM |  |  | 20.3 µM |  |  |  | 
COC(=O)[C@@H]1CCCN1C(=O)CC(C)C | > 250 µM | 1.63 µM | 970 nM | 14.2 µM | 1.97 µM | > 250 µM | 2.23 µM | 1.95 µM | 50 | Active | Active | Active
CSCCC(=O)N1CCC[C@@H]1C(=O)O | > 250 µM | 4.27 µM |  | 39.1 µM | 4.81 µM |  |  | 9.7 µM |  |  |  | 
CC(C)CC(=O)N1CCC[C@H]1C(=O)O | > 250 µM | 2.03 µM |  | 17.4 µM | 2.26 µM |  |  | 2.46 µM |  |  |  | 
COC(=O)[C@@H]1CCCN1C(=O)Cc1ccccc1 | > 250 µM | 11.7 µM |  | 44.1 µM | 12.4 µM |  |  | 38 µM |  |  |  | 
COC(=O)[C@H]1CCCN1C(=O)C(C)(C)C | > 250 µM | 34.7 µM |  | 73.5 µM | 39.9 µM |  |  | 96.7 µM |  |  |  | 

Compound | EC50 (HeLa) | EC50 (Leishmania donovani [1]) | EC50 (Leishmania donovani [2]) | EC50 (Trypanosoma cruzi) | EC50 (Leishmania major [3]) | EC50 (THP-1) | EC50 (Leishmania donovani [4]) | EC50 (Trypanosoma brucei [5]) | Ratio EC50 [6] | Activity (Trypanosoma brucei [7]) | Activity (Leishmania major [8]) | Activity (Trypanosoma brucei [9])
N=C(N)c1ccc(OCCCCCOc2ccc(C(=N)N)cc2)cc1 [PENTAMIDINE] |  |  |  |  |  |  |  | 0.002 µM |  |  |  | 
CC(C)C(=O)N1CCC[C@@H]1C(=O)O | > 250 µM | 4.8 µM |  | 59.7 µM | 4.11 µM |  |  | 9.9 µM |  |  |  | 
COC(=O)[C@H]1CCCN1C(=O)CCSCc1ccccc1 | > 250 µM | 33.9 µM |  | 60.2 µM | 35.7 µM |  |  | 4.11 µM |  |  |  | 
CSC[C@@H](C)C(=O)N1CCC[C@H]1C(=O)O | > 250 µM | 8.64 µM | 2140 nM | 30.2 µM | 11.6 µM | > 250 µM | 4.21 µM | 26.3 µM | 50 |  |  | 
CC(C)(C)C(=O)N1CCC[C@@H]1C(=O)O | > 250 µM | 41.2 µM |  | 80.2 µM | 48.1 µM |  |  | 106 µM |  |  |  | 
O=C(O)[C@@H]1CCCN1C(=O)Cc1ccccc1 | > 250 µM | 13.8 µM |  | 46.5 µM | 14.5 µM |  |  | 40.8 µM |  |  |  | 
COC(=O)[C@H]1CCCN1C(=O)C(C)C | > 250 µM | 3.58 µM |  | 54.1 µM | 3.3 µM |  |  | 7.52 µM |  |  |  | 
COC(=O)[C@H]1CCCN1C(=O)Cc1ccccc1 | > 250 µM | 95.2 µM |  | > 200 µM | 101 µM |  |  | > 200 µM |  |  |  | 
COC(=O)[C@@H]1CCCN1C(=O)[C@H](C)CSCc1ccccc1 | > 250 µM | 3.98 µM |  | 30 µM | 8.65 µM |  |  | 32.9 µM |  |  |  | 
O=C(O)[C@H]1CCCN1C(=O)CCS | > 250 µM | 4.59 µM |  | 18.2 µM | 6.06 µM |  |  | 16.7 µM |  |  |  | 
O=C(O)[C@H]1CCCN1C(=O)CCSCc1ccccc1 | > 250 µM | 39.8 µM |  | 71.2 µM | 39.6 µM |  |  | 5.9 µM |  |  |  | 
CCCCCCCCCCCCCCCCOP(=O)([O-])OCC[N+](C)(C)C [MILTEFOSINE] |  | 5.82 µM | 2670 nM |  | 5.31 µM | > 250 µM | 5.97 µM |  |  |  |  | 
COC(=O)[C@@H]1CCCN1C(=O)C(C)(C)C | > 250 µM | 17.1 µM |  | 66.4 µM | 14.5 µM |  |  | 58.3 µM |  |  |  | 
COC(=O)[C@@H]1CCCN1C(=O)[C@H](C)CS | > 250 µM | 2.81 µM |  | 22.7 µM | 7.29 µM |  |  | 15.2 µM |  |  |  | 
COC(=O)[C@@H]1CCCN1C(=O)[C@H](C)CSC | > 250 µM | 2.04 µM |  | 15.6 µM | 5.3 µM |  |  | 13.2 µM |  |  |  | 
CC(C)C(=O)N1CCC[C@H]1C(=O)O | > 250 µM | 8.07 µM |  | 61.5 µM | 5.52 µM |  |  | 12.2 µM |  |  |  | 
O=C(O)[C@H]1CCCN1C(=O)Cc1ccccc1 | > 250 µM | 98.4 µM |  | > 200 µM | 104 µM |  |  | > 200 µM |  |  |  | 
